Data taken from US9409865B2, “Modulators of methyl modifying enzymes, compositions and uses thereof” (Constellation Pharmaceuticals, Inc., priority 2011, dated 2016).

Columns and labels:
[1] = biological target: Y641N EZH2 (Homo sapiens, UniProt Q15910, Y641N); assay: Y641N EZH2 assay (as the EZH2 assay, with H3K27Me2 oligonucleosomes as substrate); type: biochemical; settings: Y641N EZH2 mutant, reconstituted H3K27Me2 oligonucleosomes as substrate; top concentration 80 μM
Protocol: (§1) Assays were carried out by mixing rPRC2 together with biotinylated oligonucleosome substrates in the presence of the radio-labeled enzyme co-factor, S-adenosyl-L-methionine (^3H SAM) (Perkin Elmer) and monitoring the enzymatically mediated transfer of tritiated methyl groups from ^3H SAM to histone lysine residues. The amount of resulting tritiated methylhistone product was measured by first capturing the biotinylated oligonucleosomes in streptavidin (SAV) coated FlashPlates (Perkin Elmer), followed by a wash step to remove un-reacted ^3H SAM, and then counting on a TopCount NXT 384 well plate scintillation counter (Perkin Elmer). The final assay conditions for EZH2 were as follows: 50 mM Tris Buffer pH 8.5, 1 mM DTT, 69 μM Brij-35 detergent, 5.0 mM MgCl2, 0.1 mg/mL BSA, 0.2 μM ^3H SAM, 0.2 μM biotinylated oligonucleosomes, 3.6 μM H3K27me3 peptide and 2 nM EZH2.
(§2) Ten point dose response curves were generated by dispensing varying amounts of the 10 mM compound solution in 10 wells of the 384 well plate (Echo; Labcyte), pure DMSO was then used to backfill the wells to insure all wells have the same amount of DMSO. A 12.5 μL volume of the HMT enzyme, H3K27me3 peptide and oligonucleosome substrate in assay buffer was added to each well of the assay plate using a Multidrop Combi (ThermoFisher). Compounds were pre-incubated with the enzyme for 20 min, followed by initiation of the methyltransferase reaction by addition of 12.5 μL of 3H SAM in assay buffer (final volume=25 μL). The final concentrations of compounds ranged from a top default concentration of 80 μM down to 0.16 μM in ten 2-fold dilution steps. Reactions were carried out for 60 minutes and quenched with 20 μL per well of 1.96 mM SAH, 50 mM Tris PH 8.5, 200 mM EDTA. Stopped reactions were transferred to SAV coated Flashplates (Perkin Elmer), incubated for 120 min, washed with a plate washer, and then read on the TopCount NXT (1.0 min/well) to measure the amount of methylhistone product formed during the reaction.
Assay for Y641N EZH2 was performed as above using reconstituted H3K27Me2 oligonucleosomes as substrate.

[2] = biological target: EZH2 (Homo sapiens, UniProt Q15910); assay: EZH2 assay (rPRC2, 3H SAM methyl transfer to biotinylated oligonucleosomes); type: biochemical; settings: rPRC2, 2 nM EZH2, biotinylated oligonucleosomes, 0.2 μM 3H SAM; top concentration 80 μM
Protocol: as §1, §2

Y641N EZH2, sequence (Q15910 whole entry Y641N): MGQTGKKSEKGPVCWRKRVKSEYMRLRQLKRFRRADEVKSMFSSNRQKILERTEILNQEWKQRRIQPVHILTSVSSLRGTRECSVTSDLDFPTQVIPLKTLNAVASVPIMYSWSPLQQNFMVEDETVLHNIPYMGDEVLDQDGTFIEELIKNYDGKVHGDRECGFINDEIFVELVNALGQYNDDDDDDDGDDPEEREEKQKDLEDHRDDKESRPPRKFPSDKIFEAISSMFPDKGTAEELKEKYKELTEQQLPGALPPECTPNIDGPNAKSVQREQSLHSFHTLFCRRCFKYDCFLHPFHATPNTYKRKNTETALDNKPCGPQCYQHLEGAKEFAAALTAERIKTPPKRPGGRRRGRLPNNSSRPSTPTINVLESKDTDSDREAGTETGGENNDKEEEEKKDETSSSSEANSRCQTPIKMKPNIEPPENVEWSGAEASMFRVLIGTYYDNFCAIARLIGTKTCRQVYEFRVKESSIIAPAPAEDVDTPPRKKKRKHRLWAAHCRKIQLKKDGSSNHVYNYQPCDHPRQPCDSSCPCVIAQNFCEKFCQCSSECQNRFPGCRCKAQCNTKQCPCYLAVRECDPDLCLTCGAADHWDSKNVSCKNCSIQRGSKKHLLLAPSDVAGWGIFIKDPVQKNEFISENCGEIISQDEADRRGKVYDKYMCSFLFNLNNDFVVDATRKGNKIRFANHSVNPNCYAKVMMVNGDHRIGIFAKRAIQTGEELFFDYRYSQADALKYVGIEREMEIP
Y641N EZH2, sequence (O75530 whole entry partner): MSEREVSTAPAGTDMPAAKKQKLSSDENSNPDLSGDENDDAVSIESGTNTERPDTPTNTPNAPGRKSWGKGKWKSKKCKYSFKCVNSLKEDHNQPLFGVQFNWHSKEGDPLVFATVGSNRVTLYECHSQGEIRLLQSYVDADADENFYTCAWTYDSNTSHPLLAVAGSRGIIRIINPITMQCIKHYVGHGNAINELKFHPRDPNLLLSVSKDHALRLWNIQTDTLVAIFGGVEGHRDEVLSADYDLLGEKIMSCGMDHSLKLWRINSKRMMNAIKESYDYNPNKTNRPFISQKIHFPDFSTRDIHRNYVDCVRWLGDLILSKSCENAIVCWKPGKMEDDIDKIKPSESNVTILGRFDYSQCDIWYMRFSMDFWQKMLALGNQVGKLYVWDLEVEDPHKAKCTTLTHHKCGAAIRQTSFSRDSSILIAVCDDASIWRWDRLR
Y641N EZH2, sequence (Q15022 whole entry partner): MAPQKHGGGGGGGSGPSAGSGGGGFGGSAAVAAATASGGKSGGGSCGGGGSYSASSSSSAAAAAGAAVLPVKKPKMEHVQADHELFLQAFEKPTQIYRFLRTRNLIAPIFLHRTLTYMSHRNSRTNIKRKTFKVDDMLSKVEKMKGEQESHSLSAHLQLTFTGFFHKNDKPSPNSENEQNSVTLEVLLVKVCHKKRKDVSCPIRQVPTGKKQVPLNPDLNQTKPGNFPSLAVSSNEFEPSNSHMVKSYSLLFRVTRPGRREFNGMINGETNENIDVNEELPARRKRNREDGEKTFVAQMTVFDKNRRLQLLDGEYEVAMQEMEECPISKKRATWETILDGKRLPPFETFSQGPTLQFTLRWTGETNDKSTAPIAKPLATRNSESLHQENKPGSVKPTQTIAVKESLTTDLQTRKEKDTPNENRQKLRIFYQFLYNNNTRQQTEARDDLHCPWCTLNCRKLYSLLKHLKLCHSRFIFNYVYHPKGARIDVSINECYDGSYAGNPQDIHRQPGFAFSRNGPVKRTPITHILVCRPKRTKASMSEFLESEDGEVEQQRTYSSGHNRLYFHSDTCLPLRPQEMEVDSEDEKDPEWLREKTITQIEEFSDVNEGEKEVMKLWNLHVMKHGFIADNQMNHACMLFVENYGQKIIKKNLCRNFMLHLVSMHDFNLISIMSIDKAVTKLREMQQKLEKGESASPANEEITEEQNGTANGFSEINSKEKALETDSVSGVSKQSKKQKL
EZH2, sequence (Q15910 whole entry): as the sequence (Q15910 whole entry Y641N) above, with N641Y counted along it
EZH2, sequence (O75530 whole entry partner): as the sequence (O75530 whole entry partner) above
EZH2, sequence (Q15022 whole entry partner): as the sequence (Q15022 whole entry partner) above

| SMILES | IC50 [1] [µM] | IC50 [2] [µM] |
| --- | --- | --- |
| COC(C)(C)c1ccc(C(=O)NCc2c(C)cc(C)[nH]c2=O)cc1 [Compound I-3, N-((2-hydroxy-4,6-dimethylpyridin-3-yl)methyl)-4-(2-methoxypropan-2-yl)benzamide] | > 10 | 1 to 10 |
| COC(C)c1ccc(C(=O)NCc2c(C)cc(C)[nH]c2=O)cc1 (stereo not drawn) [Compound I-4, N-((2-hydroxy-4,6-dimethylpyridin-3-yl)methyl)-4-(1-methoxyethyl)benzamide] | 1 to 10 | < 1 |
| Cc1cc(C)c(CNC(=O)c2ccc(C(C)OCC(C)C)cc2)c(=O)[nH]1 (stereo not drawn) [Compound I-8, N-((2-hydroxy-4,6-dimethylpyridin-3-yl)methyl)-4-(1-isobutoxyethyl)benzamide] | 1 to 10 | < 1 |
| Cc1cc(C)c(CNC(=O)c2ccc3c(c2)OCC3C)c(=O)[nH]1 (stereo not drawn) [Compound I-12] | > 80 | 1 to 10 |
| Cc1cc(C)c(CNC(=O)c2ccn(C(C)C)c(=O)c2)c(=O)[nH]1 [Compound I-14, N-((2-hydroxy-4,6-dimethylpyridin-3-yl)methyl)-1-isopropyl-2-oxo-1,2-dihydropyridine-4-carboxamide] | > 80 | 1 to 10 |
| Cc1cc(C)c(CNC(=O)c2ccc(C(C)(C)O)cc2)c(=O)[nH]1 [Compound I-20, N-((2-hydroxy-4,6-dimethylpyridin-3-yl)methyl)-4-(2-hydroxypropan-2-yl)benzamide] | > 80 | > 10 |

Second part, the compound after the results:

| IC50 [1] [µM] | IC50 [2] [µM] | SMILES |
| --- | --- | --- |
| 1 to 10 | 1 to 10 | Cc1cc(C)c(CNC(=O)c2ccc(C(C)C)cc2C)c(=O)[nH]1 [Compound I-1, N-((2-hydroxy-4,6-dimethylpyridin-3-yl)methyl)-4-isopropyl-2-methylbenzamide] |
| 1 to 10 | < 1 | Cc1cc(C)c(CNC(=O)c2ccc(C(C)C)cc2Cl)c(=O)[nH]1 [Compound I-2, 2-chloro-N-((2-hydroxy-4,6-dimethylpyridin-3-yl)methyl)-4-isopropyl benzamide] |
| 1 to 10 | < 1 | Cc1cc(C)c(CNC(=O)c2ccc(C(C)OC(C)C)cc2)c(=O)[nH]1 (stereo not drawn) [Compound I-5, N-((2-hydroxy-4,6-dimethylpyridin-3-yl)methyl)-4-(1-isopropoxyethyl)benzamide] |
| > 10 | > 10 | Cc1cc(C)c(CNC(=O)c2ccc(COC(C)C)cc2)c(=O)[nH]1 [Compound I-6] |
| 1 to 10 | < 1 | CCOC(C)c1ccc(C(=O)NCc2c(C)cc(C)[nH]c2=O)cc1 (stereo not drawn) [Compound I-7, 4-(1-ethoxyethyl)-N-((2-hydroxy-4,6-dimethylpyridin-3-yl)methyl)benzamide] |
| 1 to 10 | < 1 | Cc1cc(C)c(CNC(=O)c2ccc(C(C)C(C)C)cc2)c(=O)[nH]1 (stereo not drawn) [Compound I-9, N-((2-hydroxy-4,6-dimethylpyridin-3-yl)methyl)-4-(3-methylbutan-2-yl)benzamide] |
| 1 to 10 | < 1 | CCCC(C)c1ccc(C(=O)NCc2c(C)cc(C)[nH]c2=O)cc1 (stereo not drawn) [Compound I-10, N-((2-hydroxy-4,6-dimethylpyridin-3-yl)methyl)-4-(pentan-2-yl)benzamide] |
| > 80 | 1 to 10 | Cc1cc(C)c(CNC(=O)c2ccc(C(C)C)c(Oc3ccccc3)c2)c(=O)[nH]1 [Compound I-11, N-((2-hydroxy-4,6-dimethylpyridin-3-yl)methyl)-4-isopropyl-3-phenoxy benzamide] |
| > 80 | > 80 | CC(=O)NC(C)c1ccc(C(=O)NCc2c(C)cc(C)[nH]c2=O)cc1 (stereo not drawn) [Compound I-29, 4-(1-acetamidoethyl)-N-((2-hydroxy-4,6-dimethylpyridin-3-yl)methyl)benzamide] |
